Reference: patent publication US11040027B2, “Protein kinase inhibitors for promoting liver regeneration or reducing or preventing hepatocyte death” (HEPAREGENIX GMBH, priority 2017, dated 2021)

Tests used:
[1] = biological target: JNK1 (Homo sapiens, UniProt P45983); experiment: KINOMEscan competition binding assay, selectivity JNK1 versus MKK4; details: ratio of percent of control
Protocol: (§1) For investigation of the affinity to MKK4, MKK7 and JNK1, the kinases were produced in HEK-293 cells and subsequently tagged with DNA for qPCR detection. […] The liganded beads were blocked with excess biotin and washed with blocking buffer (SEABLOCK™ (Pierce), 1% BSA, 0.05% TWEEN®20, 1 mM DTT) to remove unbound ligand and to reduce nonspecific binding. […] All reactions were performed in polystyrene 96-well plates in a final volume of 0.135 mL. […] The kinase concentration in the eluates was measured by qPCR.

[2] = biological target: BRaf (Homo sapiens, UniProt P15056); experiment: KINOMEscan competition binding assay, selectivity BRaf versus MKK4; details: Test conc. 0.1 μM; ratio of percent of control; N/E* per footnote
Chain of BRaf (P15056 whole entry): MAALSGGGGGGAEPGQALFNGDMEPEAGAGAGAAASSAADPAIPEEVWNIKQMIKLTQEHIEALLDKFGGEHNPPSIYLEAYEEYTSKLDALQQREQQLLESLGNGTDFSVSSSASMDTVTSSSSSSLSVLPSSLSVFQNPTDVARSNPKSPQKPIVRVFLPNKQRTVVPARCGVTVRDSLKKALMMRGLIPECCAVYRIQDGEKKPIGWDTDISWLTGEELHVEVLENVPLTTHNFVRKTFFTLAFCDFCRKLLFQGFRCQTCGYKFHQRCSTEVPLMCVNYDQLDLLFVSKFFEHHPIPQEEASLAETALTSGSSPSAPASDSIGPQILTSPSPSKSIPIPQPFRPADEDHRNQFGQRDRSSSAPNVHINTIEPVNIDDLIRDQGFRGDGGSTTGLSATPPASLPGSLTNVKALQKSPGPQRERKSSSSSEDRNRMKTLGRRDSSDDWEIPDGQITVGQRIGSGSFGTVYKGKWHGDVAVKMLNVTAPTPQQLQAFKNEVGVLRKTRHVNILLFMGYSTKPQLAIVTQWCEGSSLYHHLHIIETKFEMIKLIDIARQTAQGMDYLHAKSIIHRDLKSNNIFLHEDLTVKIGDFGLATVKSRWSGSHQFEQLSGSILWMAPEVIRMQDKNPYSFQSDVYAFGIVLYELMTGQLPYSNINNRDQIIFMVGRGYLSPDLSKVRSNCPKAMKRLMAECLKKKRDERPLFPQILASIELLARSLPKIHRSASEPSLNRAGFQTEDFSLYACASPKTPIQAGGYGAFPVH
Protocol: The assay was performed by combining three components: DNA-tagged kinase; immobilized ligand; and a test compound. The ability of the test compound to compete with the immobilized ligand was measured via quantitative PCR of the DNA tag. The technology is described in detail in Fabian, M. A. et al. A small molecule-kinase interaction map for clinical kinase inhibitors. Nat. […] Nat.
The test compounds were provided as 10 mM stock solutions. The test solutions at indicated final concentrations were prepared at DiscoverX.

[3] = biological target: T1, MKK7 (Homo sapiens, UniProt O14733); experiment: KINOMEscan competition binding assay, selectivity MKK7 versus MKK4; details: Test conc. 0.1 μM; ratio of percent of control; N/E* per footnote
T1 sequence (O14733 1-419): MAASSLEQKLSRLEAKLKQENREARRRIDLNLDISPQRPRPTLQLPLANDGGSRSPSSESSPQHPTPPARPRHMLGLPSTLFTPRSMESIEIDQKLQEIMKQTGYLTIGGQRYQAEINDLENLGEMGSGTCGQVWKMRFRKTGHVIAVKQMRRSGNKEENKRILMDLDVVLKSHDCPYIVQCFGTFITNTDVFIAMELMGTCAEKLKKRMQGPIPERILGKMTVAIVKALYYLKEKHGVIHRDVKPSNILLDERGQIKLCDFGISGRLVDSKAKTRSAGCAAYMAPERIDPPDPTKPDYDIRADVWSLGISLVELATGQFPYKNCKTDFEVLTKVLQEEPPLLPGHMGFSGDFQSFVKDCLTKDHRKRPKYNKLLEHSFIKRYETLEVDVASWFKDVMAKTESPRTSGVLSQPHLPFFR
Protocol: as §1

[4] = biological target: T2, MKK4 (Homo sapiens, UniProt P45985); experiment: KINOMEscan competition binding assay, MKK4; details: read-out: Potency MKK4 (derived from % of control values, PoC)
T2 sequence (P45985 84-399): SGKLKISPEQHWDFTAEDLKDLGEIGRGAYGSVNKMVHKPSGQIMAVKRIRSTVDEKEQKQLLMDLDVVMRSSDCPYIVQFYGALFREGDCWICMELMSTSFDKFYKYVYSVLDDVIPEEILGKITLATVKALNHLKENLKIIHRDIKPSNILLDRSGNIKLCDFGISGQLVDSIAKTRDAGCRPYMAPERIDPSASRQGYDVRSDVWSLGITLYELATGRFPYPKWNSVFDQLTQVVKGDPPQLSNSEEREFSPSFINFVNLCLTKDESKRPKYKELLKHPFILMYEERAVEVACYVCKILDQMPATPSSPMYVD

[5] = Test conc 0.1 μM, N/E* = PoC for JNK1 = 100

Chain of JNK1 (P45983 1-384 isoform P45983-2): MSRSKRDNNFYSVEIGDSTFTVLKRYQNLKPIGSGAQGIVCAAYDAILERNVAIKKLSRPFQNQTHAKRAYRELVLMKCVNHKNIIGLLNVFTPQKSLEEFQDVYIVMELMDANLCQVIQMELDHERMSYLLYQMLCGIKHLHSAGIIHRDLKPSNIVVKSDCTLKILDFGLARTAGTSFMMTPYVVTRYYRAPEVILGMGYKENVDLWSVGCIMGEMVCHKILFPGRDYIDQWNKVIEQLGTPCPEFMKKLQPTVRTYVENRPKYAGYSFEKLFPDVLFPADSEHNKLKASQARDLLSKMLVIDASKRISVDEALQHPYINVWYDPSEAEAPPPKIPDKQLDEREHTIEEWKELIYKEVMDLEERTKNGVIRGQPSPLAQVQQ

Selectivity JNK1/MKK4 [1, 5]	Selectivity BRaf/MKK4 [2]	Selectivity MKK7/MKK4 [3]	remaining binding at 0.1 µM [4]	Selectivity JNK1/MKK4 ([1]; Test conc 10 μM)	remaining binding at 1 µM [4]	SMILES
N/E* (PoC for JNK1 = 100)	3.3	3.3	> 30%	–	–	CCCS(=O)(=O)Nc1ccc(F)c(C(=O)c2c[nH]c3ncc(-c4ccc(Cl)cc4Cl)cc23)c1F [Example 41, N-(3-(5-(2,4-Dichlorophenyl)-1H-pyrrolo[2,3-b]pyridine-3-carbonyl)-2,4-difluorophenyl)propane-1-sulfonamide]
8.6	6.5	N/E* (PoC for JNK1 = 100)	< 10%	–	–	CCCS(=O)(=O)Nc1ccc(F)c(C(=O)c2c[nH]c3ncc(-c4ccc(OCC)cc4Cl)cc23)c1F [Example 95, N-(3-(5-(2-chloro-4-ethoxy-phenyl)-1H-pyrrolo[2,3-b]pyridine-3-carbonyl)-2,4-difluorophenyl)-propane-1-sulfonamide]
–	0.5	7.6	> 30%	>100	–	CCCS(=O)(=O)Nc1ccc(F)c(C(=O)c2c[nH]c3ncc(-c4ccc(SC)cc4)cc23)c1F [Example 8, N-(2,4-Difluoro-3-(5-(4-(methylthio)phenyl)-1H-pyrrolo[2,3-b]pyridine-3-carbonyl)phenyl)propane-1-sulfonamide]
16	8.4	20	< 10%	–	–	CCCS(=O)(=O)Nc1ccc(F)c(C(=O)c2c[nH]c3ncc(-c4ccc(OCCOC)cc4Cl)cc23)c1F [Example 98, N-(3-(5-(2-chloro-4-(2-methoxy-ethoxy)phenyl)-1H-pyrrolo[2,3-b]pyridine-3-carbonyl)-2,4-difluorophenyl)propane-1-sulfonamide]
N/E* (PoC for JNK1 = 100)	N/E* (PoC for JNK1 = 100)	<1	–	–	> 30%	CCCS(=O)(=O)Nc1nc(C(=O)c2c[nH]c3ncc(-c4ccc(Cl)cc4)cc23)cs1 [Example 111, N-(4-(5-(4-chlorophenyl)-1H-pyrrolo[2,3-b]pyridine-3-carbonyl)thiazol-2-yl)propane-1-sulfonamide]
–	2.5	8	> 30%	>100	–	CCCS(=O)(=O)Nc1ccc(F)c(C(=O)c2c[nH]c3ncc(-c4ccc(F)c(F)c4)cc23)c1F [Example 16, N-(3-(5-(3,4-Difluorophenyl)-1H-pyrrolo[2,3-b]pyridine-3-carbonyl)-2,4-difluorophenyl)propane-1-sulfonamide]
–	2.8	25	10 to 30%	>400	–	CCCS(=O)(=O)Nc1ccc(F)c(C(=O)c2c[nH]c3ncc(-c4ccc(C#N)cc4)cc23)c1F [Example 4, N-(3-(5-(4-Cyanophenyl)-1H-pyrrolo[2,3-b]pyridine-3-carbonyl)-2,4-difluorophenyl)propane-1-sulfonamide]

SMILES	Selectivity JNK1/MKK4 [1, 5]	Selectivity BRaf/MKK4 [2]	Selectivity MKK7/MKK4 [3]	remaining binding at 0.1 µM [4]	Selectivity JNK1/MKK4 ([1]; Test conc 10 μM)	remaining binding at 1 µM [4]
CCCS(=O)(=O)Nc1ccc(F)c(C(=O)c2c[nH]c3ncc(-c4ccc(OC)cc4)cc23)c1F [Example 3, N-(2,4-Difluoro-3-(5-(4-methoxyphenyl)-1H-pyrrolo[2,3-b]pyridine-3-carbonyl)phenyl)propane-1-sulfonamide]	–	1.0	10	10 to 30%	>400	–
CCCS(=O)(=O)Nc1cccc(C(=O)c2c[nH]c3ncc(-c4ccc(Cl)cc4)cc23)c1C [Example 25, N-(3-(5-(4-Chlorophenyl)-1H-pyrrolo[2,3-b]pyridine-3-carbonyl)-2-methylphenyl)propane-1-sulfonamide]	N/E* (PoC for JNK1 = 100)	1.0	1.0	> 30%	–	–
